“And” between values parts separate entries of the source, which are not always exact repeats. Equal values may be shown once. “Also recorded” adds a separate entry of the source.
How the values were obtained:
ovine COX-1 = biological target: T1, ovine COX-1 (Ovis aries, UniProt P05979); test: In vitro COX-1 colorimetric enzyme assay (Cayman kit, TMPD at 590 nm); assay type: biochemical
T1 construct: purchased Cayman Chemicals, Ann Arbor, MI, USA
T1 sequence (P05979 25-600): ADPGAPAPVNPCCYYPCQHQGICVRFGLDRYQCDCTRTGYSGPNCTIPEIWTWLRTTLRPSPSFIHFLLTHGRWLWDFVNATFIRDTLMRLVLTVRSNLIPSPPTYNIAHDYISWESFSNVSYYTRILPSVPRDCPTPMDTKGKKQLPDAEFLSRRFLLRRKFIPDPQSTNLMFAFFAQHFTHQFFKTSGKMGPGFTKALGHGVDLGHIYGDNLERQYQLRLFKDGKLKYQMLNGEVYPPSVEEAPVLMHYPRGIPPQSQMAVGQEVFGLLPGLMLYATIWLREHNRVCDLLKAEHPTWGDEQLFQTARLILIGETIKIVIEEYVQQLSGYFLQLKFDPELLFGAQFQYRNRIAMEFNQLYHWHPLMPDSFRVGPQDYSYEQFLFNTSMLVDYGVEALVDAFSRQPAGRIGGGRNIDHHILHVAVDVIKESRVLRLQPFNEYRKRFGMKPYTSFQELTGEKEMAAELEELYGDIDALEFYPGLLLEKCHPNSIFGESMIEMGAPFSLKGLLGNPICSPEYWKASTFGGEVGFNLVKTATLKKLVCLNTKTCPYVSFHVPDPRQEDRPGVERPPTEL
Experimental: (§1) The assay procedure was followed as per the manufacturer’s protocol with slight modifications. The screening kits consolidate ovine COX-1 as well as human recombinant COX-2 compounds to screen isozyme-specific inhibitors. The test investigates the peroxidase activity by projecting the presence of oxidized TMPD (N, N, N′, N′- tetramethyl-p-phenylenediamine) at 590 nm. The COX-2 selectivity was measured as a ratio of IC50 for COX-1 divided by COX-2 [15].

human recombinant COX-2 = biological target: T2, human recombinant COX-2 (Homo sapiens, UniProt P35354); test: In vitro COX-2 colorimetric enzyme assay (Cayman kit, TMPD at 590 nm); assay type: biochemical; conditions: for Selectivity (ratio of IC50 for COX-1 to COX-2): IC50 COX-1 divided by IC50 COX-2; for IC50: human recombinant COX-2; for COX-2 selectivity, in words: selectivity ratio compared with indomethacin / other derivatives; for COX-2 inhibition, in words: compared with indomethacin / other derivatives
T2 construct: purchased Cayman Chemicals, Ann Arbor, MI, USA
T2 sequence (P35354 18-604): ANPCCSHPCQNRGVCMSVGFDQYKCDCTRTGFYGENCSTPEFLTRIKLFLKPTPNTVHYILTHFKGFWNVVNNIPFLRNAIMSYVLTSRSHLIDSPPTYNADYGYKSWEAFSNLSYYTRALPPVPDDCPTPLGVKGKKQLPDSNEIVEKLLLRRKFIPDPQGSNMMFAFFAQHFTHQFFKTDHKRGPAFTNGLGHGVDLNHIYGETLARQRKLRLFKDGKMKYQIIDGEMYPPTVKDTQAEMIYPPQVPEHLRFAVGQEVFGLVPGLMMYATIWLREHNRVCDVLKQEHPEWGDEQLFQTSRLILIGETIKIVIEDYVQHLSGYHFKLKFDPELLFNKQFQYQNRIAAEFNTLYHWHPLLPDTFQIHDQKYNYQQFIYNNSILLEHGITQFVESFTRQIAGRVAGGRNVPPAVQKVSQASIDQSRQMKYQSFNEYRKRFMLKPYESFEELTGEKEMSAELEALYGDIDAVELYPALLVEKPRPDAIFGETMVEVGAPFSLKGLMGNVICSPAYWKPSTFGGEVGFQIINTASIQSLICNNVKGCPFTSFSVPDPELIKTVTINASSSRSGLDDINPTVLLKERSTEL
Experimental: as §1

[1] = tested on: carrageenan-induced paw oedema; test: Carrageenan-induced rat paw oedema; assay type: in vivo, Wistar rats; conditions: 2.57 mg/kg oral, 1 h before carrageenan; paw volume after 5 h
Experimental: All the procedures performed followed the Committee for Control and Supervision of Experiments on Animals (CPCSEA), the Ministry of Social Justice and Empowerment, the Government of India. The in vivo study was performed using Wistar rats (250-300 gm body weight) obtained from the Torrent Research Center, […]. Animals were divided into five groups containing six rats per group and housed under controlled conditions. The temperature and relative humidity of the animal house were kept at 23 ± 2 °C and 55 ± 5%, respectively. Animals were kept under a photo schedule of 12 h light and 12 h dark cycle and given access to food and purified water ad libitum. […] A freshly prepared carrageenan solution (1%w/v, 0.1 mL) was injected into the plantar side of each rat's right hind paw. […] The paw volume was measured using a plethysmometer using the mercury displacement method after 5 h of carrageenan injection.

gastric mucosa = test: Effect on the gastric mucosa (ulcerogenic effect); assay type: in vivo, Wistar rats; conditions: 2.57 mg/kg oral, six hours after administration, rats
Experimental: GI side effects were assessed six hours after an oral administration in each group. Animals were euthanized, and stomachs were expelled, opened along the more prominent bend and washed with saline to remove gastric contents. Each stomach was analysed by another researcher, blinded to the treatment groups. The stomach was visually examined for the presence of any lesions, hyperaemia (red tinge) or haemorrhagic spots for evaluation of the presence of ulceration.

| SMILES | IC50 (ovine COX-1) | Selectivity (ratio of IC50 for COX-1 to COX-2) (human recombinant COX-2) | IC50 (human recombinant COX-2) | COX-2 selectivity, in words (human recombinant COX-2) | Anti-inflammatory activity (inhibition of paw oedema), in words [1] | Ulcerogenic effect (visual examination of stomach), in words (gastric mucosa) | COX-2 inhibition, in words (human recombinant COX-2) |
| --- | --- | --- | --- | --- | --- | --- | --- |
| COc1ccc2c(c1)c(CC(=O)Nc1ccccc1)c(C)n2C(=O)c1ccc(Cl)cc1 [Compound 3a, 2-(1(4-chlorobenzoyl),5-methoxy-2-methyl-1H-indol-3-yl)-N-phenylacetamide] | 6.04 ± 0.14 µM | 2.04 | 2.97 ± 0.11 µM |  |  |  |  |
| COc1ccc2c(c1)c(CC(=O)Nc1ccccc1Cl)c(C)n2C(=O)c1ccc(Cl)cc1 [Compound 3b, 2-(1-(4-chlorobenzoyl),5-methoxy-2-methyl-1H-indol-3-yl)-N-(2-chlorophenyl)acetamide] | 4.61 ± 0.31 µM | 1.41 | 3.28 ± 0.16 µM |  |  |  |  |
| COc1ccc2c(c1)c(CC(=O)Nc1ccc(F)c(Cl)c1)c(C)n2C(=O)c1ccc(Cl)cc1 [Compound 3c, N-(3-chloro-4-fluorophenyl)-2-(1-(4-chlorobenzoyl)-5-methoxy-2-methyl-1H-indol-3-yl)acetamide] | 1.06 ± 0.1 µM | 0.76 | 1.39 ± 0.32 µM | less than indomethacin | comparable anti-inflammatory activity with the standard |  |  |
| COc1ccc2c(c1)c(CC(=O)Nc1ccc(F)cc1)c(C)n2C(=O)c1ccc(Cl)cc1 [Compound 3d, 2-(1-(4-chlorobenzoyl)-5-methoxy-2-methyl-1H-indol-3-yl)-N-(4-fluorophenyl)acetamide] | 5 ± 0.47 µM |  |  |  |  |  |  |
| COc1ccc2c(c1)c(CC(=O)Nc1ccc([N+](=O)[O-])cc1)c(C)n2C(=O)c1ccc(Cl)cc1 [Compound 3e, 2-(1-(4-chlorobenzoyl)-5-methoxy-2-methyl-1H-indol-3-yl)-N-(4-nitrophenyl)acetamide] | 1.15 ± 0.3 µM | 3.32 | 0.344 µM and 0.34 µM | highest selectivity ratio; also recorded: excellent selectivity ratio as compared with the standard | comparable anti-inflammatory activity with the standard | devoid of GI side effects such as ulceration | comparable COX-2 inhibition potential to indomethacin; also recorded: particularly significant activity against the COX-2 enzyme |
| COc1ccc2c(c1)c(CC(=O)Nc1c(Cl)cccc1Cl)c(C)n2C(=O)c1ccc(Cl)cc1 [Compound 3g, 2-(1-(4-chlorobenzoyl)-5-methoxy-2-methyl-1H-indol-3-yl)-N-(2,6-dichlorophenyl)acetamide] | 4.14 ± 0.25 µM | 1.42 | 2.91 ± 0.38 µM |  |  |  |  |
| COc1ccc2c(c1)c(CC(=O)NCc1ccccc1)c(C)n2C(=O)c1ccc(Cl)cc1 [Compound 3h, N-benzyl-2-(1-(4-chlorobenzoyl)-5-methoxy-2-methyl-1H-indol-3-yl)acetamide] | 4.99 ± 0.11 µM | 1.06 | 4.73 ± 0.15 µM |  |  |  | low inhibitory action against COX-2 |
| COc1ccc2c(c1)c(CC(=O)Nc1cccc(C)c1)c(C)n2C(=O)c1ccc(Cl)cc1 [Compound 3i, 2-(1-(4-chlorobenzoyl)-5-methoxy-2-methyl-1H-indol-3-yl)-N-m-tolylacetamide] | 4.71 ± 0.22 µM | 1.12 | 4.22 ± 0.23 µM |  |  |  | low inhibitory action against COX-2 |
| COc1ccc2c(c1)c(CC(=O)O)c(C)n2C(=O)c1ccc(Cl)cc1 [Indomethacin, 2-(1-(4-chlorobenzoyl)-5-methoxy-2-methyl-1-H-indol-3-yl)acetic acid] |  |  |  |  | significant inhibition of oedema formation | small lesions and red colouration; also recorded: small lesions and ulcers |  |

Source: publication PMC8876616, “Drug Design, Synthesis and Biological Evaluation of Heterocyclic Molecules as Anti-Inflammatory Agents” (Molecules, 2022)
